Laboratory results: PubChem BioAssay AID2305 (GlaxoSmithKline (GSK), 2010)

System: P. falciparum 3D7 growth, pLDH absorbance
Experiment: P. falciparum 3D7 growth inhibition, dose response, strain 3D7 (AID 2305)

Point of comparison: `CC(CN(C)C)C(=O)Nc1cccc(-c2ccc(-c3nc4ccccc4[nH]3)s2)c1` (stereo unspecified), IC50 740 nM. Against it:
- NCc1ccc(-c2ccc3c(N)nccc3c2)cc1 — within 1.5-fold, 890 nM
- CN1CCN(CCCN(Cc2ccc(-c3cccc(CNCc4ccc5c(c4)OCO5)c3)cc2)C(=O)CCC2CCCC2)CC1 — within 1.5-fold, 1010 nM
- COc1ccccc1-c1nc2c(ccc3nc(N)nc(N)c32)[nH]1 — 4.1-fold lower, 180 nM
- Cc1cc(Nc2ncc3c(n2)N(C2CCC2)CC3)ccc1N1CCN(C)CC1 — 1.6-fold higher, 1190 nM
- COc1ccc(NC(=O)Nc2ccc(-c3ccccc3)cc2Cl)cc1N1CCN(C)CC1 — within 1.5-fold, 870 nM
- COc1ccc(OCCn2cc(C(=O)c3ccco3)c3ccccc32)cc1 — within 1.5-fold, 770 nM
- CC(C)(C)c1ccc(CN2CCC(NC(=O)c3ccc(-c4cccc(C(F)(F)F)c4)s3)CC2)cc1 — 2.1-fold lower, 360 nM
- O=C(NCc1cccc(C(F)(F)F)c1)c1ccc(-c2nc3cc(F)c(F)cc3[nH]2)cc1 — within 1.5-fold, 780 nM
- COc1ccc(-c2cc(NCc3ccc(-n4ccnc4)cc3)nc(Nc3ccccc3)n2)cc1 — within 1.5-fold, 970 nM
- CN1CCN(c2ccc(Nc3nccc(-c4cnn5ncccc45)n3)cc2Cl)CC1 — within 1.5-fold, 830 nM
- O=S(=O)(Nc1cccc(CCN2CCC(N3CCCCC3)CC2)c1)c1ccccc1C(F)(F)F — 1.6-fold higher, 1150 nM
- O=S(=O)(NCCN1CCCC1)c1ccc(-c2ccc(CNC3Cc4ccccc4C3)cc2)cc1F — within 1.5-fold, 1000 nM
- CC(C)(C(=O)Nc1ccc(C2CCC(NCC3CC3)CC2)c(Cl)c1)c1ccc(C(F)(F)F)cc1 (stereo unspecified) — within 1.5-fold, 960 nM
- Cc1onc(-c2ccccc2)c1-c1nc(NC2CCCC(C)C2)no1 (stereo unspecified) — within 1.5-fold, 840 nM
- CCCCCCN(CCCCCC)CC(O)c1c(OC)ccc2ccccc12 (stereo unspecified) — within 1.5-fold, 570 nM
- CCCCCC(C)C(C)c1cc(O)c2c3c(c(=O)oc2c1)CN(Cc1ccccc1)CC3 (stereo unspecified) — within 1.5-fold, 600 nM
- NC(=O)c1cnc2ccc(-c3cncs3)cc2c1Nc1ccc(F)c(Cl)c1 — 4.1-fold lower, 180 nM
- COC(=O)c1ccc(C2OC3(C(=O)c4ccccc4C3=O)C(OC)=C2Cl)cc1C(C)=O (stereo unspecified) — within 1.5-fold, 550 nM
- CCN(CC)CCN1C(=O)c2oc3ccc(Cl)cc3c(=O)c2C1c1ccc(SC)cc1 (stereo unspecified) — within 1.5-fold, 1060 nM
- CN1CCC(NCc2ccc(-c3ccc(S(=O)(=O)NCc4ccccc4)c(F)c3)cc2)CC1 — within 1.5-fold, 610 nM
- Cc1ccc(CN2CCN(CC(O)COc3ccc4c(c3)CCC4)CC2)cc1 (stereo unspecified) — within 1.5-fold, 860 nM
- Fc1ccc(Nc2ccnc3cc(I)ccc23)c(Cl)c1 — within 1.5-fold, 1080 nM
- Cn1c(Nc2cc(C(C)(C)C)on2)nc2cc(Nc3ccnc(Nc4ccc(CS(C)(=O)=O)cc4)n3)ccc21 — within 1.5-fold, 980 nM
- O=C(NCC1CCC(C(=O)NC2CCCc3ccccc32)CC1)c1ccc(O)c(-c2cccc([N+](=O)[O-])c2)c1 (stereo unspecified) — within 1.5-fold, 940 nM
- O=C(N[C@@H](CC1CCCCC1)C(=O)NCCN1CCCC1)c1ccc(O)c(-c2ccc(Cl)c(Cl)c2)c1 — 2.4-fold lower, 310 nM
- CN(C)CC1CCCN1Cc1ccccc1-c1cnn(C)c(=O)c1Oc1ccccc1F (stereo unspecified) — 1.8-fold higher, 1310 nM
- CCc1cn(C)c2c(N3CCCC3=O)cc(C(=O)N[C@@H](Cc3ccccc3)[C@H](O)CNC3CCCCC3)cc12 — 6.2-fold lower, 120 nM
- c1ccc2c(CNCCCN3CCN(CCCNCc4c5ccccc5cc5ccccc45)CC3)c3ccccc3cc2c1 — 4.1-fold lower, 180 nM
- FC(F)(F)c1ccc2nc(-c3ccc(-c4ccc(CN5CCN(c6cnccn6)CC5)cc4)s3)[nH]c2c1 — within 1.5-fold, 650 nM
- COc1cc(OC)nc(C(Sc2ccc(NC(=O)c3cccs3)cc2)c2ccccc2)n1 (stereo unspecified) — 12-fold lower, 60 nM
- COc1cc(CCOc2c(C)nc(N)nc2N)cc(OC)c1OC — 37-fold lower, 20 nM
- CCOC(=O)c1ccc(NCc2ccccn2)cc1 — within 1.5-fold, 630 nM
- COc1cc(-c2nc3ccc(N4CCN(C)CC4)cc3[nH]2)cc(OC)c1OC — 1.7-fold higher, 1270 nM
- CN1CCN(CCCN(Cc2csc(-c3ccc(CNCc4ccccc4)cc3)n2)S(=O)(=O)c2ccccc2Cl)CC1 — within 1.5-fold, 880 nM
- C=C[C@H]1CN2CC[C@@H]1C[C@H]2[C@H](O)c1cc(-c2ccc(F)cc2)nc2ccc(OC)cc12 — 4.4-fold lower, 170 nM
- O=S(=O)(c1ccc2ccccc2c1)N1CCCN(Cc2ccc(OCCCN3CCCCC3)cc2)CC1 — within 1.5-fold, 1100 nM
- O=S(=O)(NC1CCN(c2ccnc3cc(Cl)ccc23)C1)c1ccc(F)cc1 (stereo unspecified) — 1.6-fold lower, 470 nM
- Cc1nc(-c2cccc(NC(C)C(=O)Nc3cc(C(F)(F)F)ccc3N3CCOCC3)c2)cs1 (stereo unspecified) — 3.1-fold lower, 240 nM
- CN(C)Cc1ccc(CN2CCN(CCOc3ccc(-c4ccc(Cl)cc4)cc3)CC2)o1 — within 1.5-fold, 1020 nM
- CN(c1ccc(NC(=O)Nc2cccc(Cl)c2)cc1)c1ccnc(N)n1 — within 1.5-fold, 630 nM
- Nc1nccc2ccc(-c3cccc4ncccc34)cc12 — 15-fold lower, 50 nM
- O=C(Nc1ccc(N2CCCCC2)c(Cl)c1)c1ccco1 — 1.8-fold lower, 410 nM
- CN(C)CCOc1ccc2c(c1)OC(C)(C)C=C2c1cccc2ccccc12 — within 1.5-fold, 780 nM
- O=C(C=Cc1ccc(Cl)c(Cl)c1)NCCCCCN1CCC(CCCNC(=O)c2ccc3c(c2)OCO3)CC1 — 4.9-fold lower, 150 nM
- CC(C)c1ccc(N(CC(=O)N/N=C/c2ccc(C(F)(F)F)cc2)S(=O)(=O)c2ccc(C(F)(F)F)cc2)cc1 — within 1.5-fold, 850 nM
- COc1ccc(N2C(=O)C3C(C2=O)C2(C)c4ccccc4C3(C)c3ccccc32)c([N+](=O)[O-])c1 (stereo unspecified) — within 1.5-fold, 720 nM
- C[C@H](NCCC1CCC(NC(=O)N[C@H](C)C(O)(c2ccccc2)c2ccccc2)CC1)c1cccc2ccccc12 (stereo partly specified) — within 1.5-fold, 1100 nM
- Cc1nc2c(=O)sc3ccccc3c2n1Cc1ccccc1 — within 1.5-fold, 880 nM
- CCN(CC)CCN(Cc1ccc(-c2ccc(Cl)cc2)cc1)C(=O)Cn1cc(CN(C)C)c(=O)nc1SCc1ccc(F)cc1 — within 1.5-fold, 750 nM
- COc1cc2ccccc2cc1CNCCCCCCNCc1cc2ccccc2cc1OC — within 1.5-fold, 720 nM
- COc1ccc(CCn2c(=N)c(C(=O)NCc3cccnc3)cc3c(=O)n4ccccc4nc32)cc1 — within 1.5-fold, 880 nM
- COc1ccc2c(c1)Nc1ccc(Cl)cc1C2N (stereo unspecified) — 2.5-fold lower, 300 nM
- CC(C)(C)COc1ccc2c(N)n[nH]c2c1 — within 1.5-fold, 790 nM
- CCOc1ccccc1CNc1nccc(NCc2ccc(Cl)cc2Cl)n1 — within 1.5-fold, 1100 nM
- Clc1ncnc2ncn(Cc3cccc(Br)c3)c12 — within 1.5-fold, 1060 nM
- COc1cc(NC(=O)NC(CCN2CCC3(CCc4ccccc43)CC2)c2ccc(Cl)c(Cl)c2)cc(OC)c1OC (stereo unspecified) — within 1.5-fold, 680 nM
- Cn1nc(C(F)(F)F)c(-c2ccc(F)cc2)c1NC(=O)Nc1ccc(F)cc1F — within 1.5-fold, 760 nM
- CC(C)(C)c1ccc(/C=C/C(=O)NCCCCCN2CCC(c3c[nH]c4ccccc34)CC2)cc1 — within 1.5-fold, 1090 nM
- COc1ccc(NC(=O)[C@H](CC(C)C)Nc2cc(C)nc(NCC3CCCCC3)n2)cc1 — within 1.5-fold, 1100 nM
- N#Cc1ccc(CN2CCC(NC(=O)c3ccc(-c4nnc(-c5cccc6ccccc56)o4)cc3)CC2)cc1 — within 1.5-fold, 680 nM
- CCN(CC)Cc1cc(Nc2c3ccc(Cl)cc3nc3cccc(OC)c23)ccc1O — 25-fold lower, 30 nM
- O=C1CCCN1CCCNCc1cccc(-c2cccc(-c3nc4ccc(F)cc4[nH]3)c2)c1 — within 1.5-fold, 600 nM
- Cc1cc(NC(=O)Nc2cccc(C#N)c2)c2ccccc2n1 — within 1.5-fold, 580 nM
- CC(C)Oc1cc2c(cc1NS(=O)(=O)c1ccc(-c3ccc(Cl)cc3)cc1F)CCN(C)CC2 — within 1.5-fold, 920 nM
- CCCC(=O)Nc1ccc(OCCCN(Cc2ccccc2C(F)(F)F)c2ccc(C#N)c(C(F)(F)F)c2)cc1 — within 1.5-fold, 930 nM
- COCCN1CCC(NCC(C)(C)c2nc(-c3ccc(Cl)c(O)c3)c(-c3ccncc3)[nH]2)CC1 — within 1.5-fold, 720 nM
- O=C(Nc1nc2cc(S(=O)(=O)NCc3ccc(Cl)c(Cl)c3)ccc2n1CCCn1ccnc1)c1ccc(Cl)cc1 — within 1.5-fold, 730 nM
- Cc1c(N=O)cc(C(C)(C)C)c(O)c1C(=O)Nc1ccc([N+](=O)[O-])cc1Cl — within 1.5-fold, 770 nM
- O=C(Cc1cnc[nH]1)Nc1cccc(-c2cccc(-c3nc4ccc(F)cc4[nH]3)c2)c1 — within 1.5-fold, 780 nM
- Cc1cccc(CN2CCCN(Cc3ccc(C(=O)Nc4ccc(C(C)(C)C)cc4)cc3)CC2)c1 — within 1.5-fold, 730 nM
